In publication PMC12562567, “Comparative Efficacy of CK2 Inhibitors CX-4945 and SGC-CK2-2 on CK2 Signaling” (International Journal of Molecular Sciences, 2025):
Like-named read-outs stand apart in the source and are kept apart here.

Assays:
PARP-1 [1] = assay: PARP-1 degradation/cleavage by Western blot, HeLa; conditions: HeLa cells
HeLa cells = assay: MTT cell viability assay, HeLa; type: cell-based, human
Procedure: (§1) One hour before the end of the incubations, 10 μL of MTT solution (5 mg/mL in PBS) was added to each well. […] Plates were read at λ 540 nm absorbance, in a Titertek Multiskan Plus plate reader (Flow Laboratories, Sutton, UK).

CSNK2A1 = tested on: CSNK2A1; parameters: method as in PMID 41883516; conditions: cited from earlier work
phospho-cdc37 S13 [2] = assay: Western blot of phospho-cdc37 S13 (CK2 substrate) in HeLa cells; type: cell-based, human; conditions: 24 h
Source text: (§2) . These substrates were selected based on their different responses to kinase inhibition. S129Akt was described in 2015 as a specific CK2 substrate, and its phosphorylation is highly sensitive to CK2 inhibition showing a strong early reduction. On the contrary, S13-cdc37, described in 2004 as a CK2-specific substrate, requires higher inhibitor concentrations or longer exposure times to achieve a significant impact on its phosphorylation. The phosphorylation of both substrates is reduced in CK2-knockout cells. Moreover, to gain a more comprehensive view of CK2 substrate phosphorylation, we used a phosphoantibody developed against p-Ser/p-Thr containing a CK2 consensus sequence (pS/pTDXE motif).

phospho-Akt1 S129 [3] = assay: Western blot of phospho-Akt1 S129 (CK2 substrate) in HeLa cells; type: cell-based, human; conditions: for IC50: Homo sapiens, read-out: IC50 pS129 AKT phosphorylation
Source text: as §2

phospho-Akt1 S129 [4] = assay: Western blot of phospho-Akt1 S129 (CK2 substrate) in MDA-MB-231 cells; type: cell-based; conditions: for IC50: Homo sapiens, read-out: IC50 pS129 AKT phosphorylation
Source text: (§3) We repeated the same treatments using a different cell line, breast cancer MDA-MB-231. […] . Even though MDA-MB-231 was less responsive to the two CK2 inhibitors than HeLa cells, the overall outcome appeared similar. […] .

MDA-MB-231 cells = assay: MTT cell viability assay, MDA-MB-231; type: cell-based; conditions: for Effect on cell viability (reduction): MDA cells, 2.5 µM
Procedure: as §1

phospho-cdc37 S13 [5] = assay: Western blot of phospho-cdc37 S13 (CK2 substrate) in MDA-MB-231 cells; type: cell-based; conditions: Homo sapiens, read-out: IC50 pS13 cdc37 phosphorylation
Source text: as §3

[6] = parameters: method as in PMID 37901516; conditions: 30 min of incubation; cited from earlier work
[7] = cited from earlier work
PARP-1 [8] = assay: PARP-1 degradation/cleavage by Western blot, MDA-MB-231; type: cell-based; conditions: MDA-MB-231 cells
[9] = parameters: method as in PMID 37077385; conditions: preliminary proliferation assays; cited from earlier work
[10] = MDA-MB-231 cells, 24 h, densitometry of Western blot

In the case of `O=C(O)c1ccc2c(c1)nc(Nc1cccc(Cl)c1)c1ccncc12` [CX-4945], the “Concentration at which PARP-1 degradation (reduction in total PARP-1) is visible” value (PARP-1 [1]; 24 h) is reported as 10 µM, the “Concentration at which PARP-1 degradation (reduction in total PARP-1) is visible” value (PARP-1 [1]; 48 h) is reported as 5 µM and the “Concentration at which the 89 KDa PARP fragment is detected” value (PARP-1 [1]; after 48 h (first mention (so in the source))) is reported as 5 µM. The “Concentration at which the 89 KDa PARP fragment is detected” value (PARP-1 [1]; after 48 h (second mention)) was 2.5 µM, the “Effect on cell viability (reduction)” value (HeLa cells; HeLa cells, 2.5 µM, 24 h, MTT) was ~ 20% and the “Effect on cell viability (reduction)” value (HeLa cells; HeLa cells, 2.5 µM, 48 h, MTT) was ~ 30%. The “Significantly downregulated phosphopeptides determined to be CSNK2A1 dependent” value (CSNK2A1; after 4 h of treatment) was 15%, the “Significantly downregulated phosphopeptides determined to be CSNK2A1 dependent” value (CSNK2A1; after 24 h of treatment) was 5% and the IC50 (phospho-cdc37 S13 [2]; Homo sapiens, HeLa cells, densitometry of Western blot, read-out: IC50 pS13 cdc37 phosphorylation) was 3 µM. The “Phosphorylation of Akt at Ser129” value (phospho-Akt1 S129 [3]; HeLa cells, 2.5 µM (lowest concentration tested), 24 h) was “completely abolished”, the IC50 (phospho-Akt1 S129 [3]; HeLa cells, 24 h, densitometry of Western blot) was 0.7 µM and the IC50 (phospho-Akt1 S129 [4]; [10]) was 0.9 µM. The “Effect on cell viability (reduction)” value (MDA-MB-231 cells; 24 h, MTT) was ~ 5%, the “Effect on cell viability (reduction)” value (MDA-MB-231 cells; 48 h, MTT) was ~ 15% and the IC50 (phospho-cdc37 S13 [5]; [10]) was 4.4 µM.
For `CCC(=O)Nc1cc(Nc2cc(NC3CC3)n3ncc(C#N)c3n2)ccc1C` [SGC-CK2-1], the “Significantly downregulated phosphopeptides determined to be CSNK2A1 dependent” value (CSNK2A1; after 4 h of treatment) is listed as 55%, the “Significantly downregulated phosphopeptides determined to be CSNK2A1 dependent” value (CSNK2A1; after 24 h of treatment) is listed as 55% and the “Compound degraded in vitro in mouse liver microsomes” value [6] is listed as 60%. For the same compound, the Aqueous solubility [7] was “moderate”.
With `O=C(O)c1ccc2c(c1)nc(NCc1ccccc1)c1ncncc12` [SGC-CK2-2] the “Concentration at which PARP-1 degradation (reduction in total PARP-1) is visible” value (PARP-1 [1]; 24 h) was 40 µM, the “Concentration at which PARP-1 degradation (reduction in total PARP-1) is visible” value (PARP-1 [1]; 48 h) was 20 µM and the “Degradation of PARP-1” value (PARP-1 [8]; 24 h, all concentrations tested) was “did not induce any degradation”. The “Concentration giving significant PARP-1 degradation” value (PARP-1 [8]; 48 h) was no less than 20 µM, the “Reduction in cell viability achieved” value (HeLa cells; HeLa cells, 24 h, all concentrations tested (up to 40 µM), MTT) was less than 50% and the “Effect on cell viability” value (HeLa cells; HeLa, 2.5 µM, 24 h treatment) was “no significant effect”. For the same compound, the IC50 (phospho-cdc37 S13 [2]; Homo sapiens, HeLa, read-out: IC50 pS13 cdc37 phosphorylation, HeLa cells, 24 h, densitometry of Western blot) was 9 µM, the IC50 (phospho-cdc37 S13 [2]; read-out: IC50 pS13 cdc37 phosphorylation, HeLa cells, densitometry of Western blot) was 9.9 µM and the “Concentration that nearly abolishes Akt S129 phosphorylation” value (phospho-Akt1 S129 [3]; HeLa, 24 h treatment) was 2.5 µM. The IC50 (phospho-Akt1 S129 [3]; HeLa, 24 h) was 2.2 µM, the IC50 (phospho-Akt1 S129 [4]; MDA-MB-231, 24 h) was 1.3 µM and the “Concentration that nearly abolishes Akt S129 phosphorylation” value (phospho-Akt1 S129 [4]; MDA, 24 h treatment) was 5 µM. For the same compound, the “Effect on cell viability” value (MDA-MB-231 cells; MDA, 5 µM, 24 h treatment) was “no significant effect”, the “Reduction in cell viability achieved” value (MDA-MB-231 cells; MDA-MB-231 cells, 24 h, all concentrations tested (up to 40 µM), MTT) was less than 50% and the “Aqueous kinetic solubility relative to SGC-CK2-1” value [7] was “markedly improved”. For the same compound, the IC50 (phospho-cdc37 S13 [5]; MDA-MB-231, 24 h) was 20.4 µM and the Antiproliferative effects [9] was “lacks antiproliferative effects”.
